# According to patent US10975119B2, “Selective cysteine protease inhibitors and uses thereof” (Genesis Technologies Limited, priority 2011, dated 2021):
# Where two headings read alike, the source gives them in different places.
# Assays:
# Format in all cases: biochemical
# Caspase-5 = molecular target: T1, Caspase-5 (Homo sapiens, UniProt P51878); experiment: Caspase-5 inhibitor screening assay (BioVision kit, WEHD-AFC); settings: read-out: IC50 Casp5
# T1 construct: mixing the compounds with the respective active caspases; purchased BioVision K155-100
# T1 sequence (P51878 137-327 limits assumed): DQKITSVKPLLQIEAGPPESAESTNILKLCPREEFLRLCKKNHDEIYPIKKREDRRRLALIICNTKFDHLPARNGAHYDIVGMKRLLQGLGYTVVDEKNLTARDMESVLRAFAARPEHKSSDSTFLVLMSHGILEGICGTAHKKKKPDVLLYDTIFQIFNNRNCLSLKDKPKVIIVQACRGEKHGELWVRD
# T1 sequence (P51878 347-434 limits assumed): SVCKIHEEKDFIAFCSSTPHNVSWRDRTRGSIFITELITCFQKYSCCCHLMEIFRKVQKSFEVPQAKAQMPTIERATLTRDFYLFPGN
# Description: (§1) The efficacy of an array of compounds as an inhibitor of the activity of Caspases 1 through 10 were assessed by using the respective Caspase Inhibitor Drug Screening Kits (Caspase-1 Catalog #: K151-100, Caspase-2 Catalog #: K152-100, Caspase-3 Catalog #: K153-100, Caspase-4 Catalog #: K154-100, Caspase-5 Catalog #: K155-100, Caspase-6 Catalog #: K156-100, Caspase-7 Catalog #: K157-100, Caspase-8 Catalog #: K158-100, Caspase-9 Catalog #: K159-100, Caspase-10 Catalog #: K160-100, BioVision) following the instructions of the manufacturer. […] Active caspases cleaved their respective synthetic substrates to release free AFC, which was then quantified by fluorometry.
# (§2) Briefly, the compounds were first tested at 2 concentrations (10 uM and 100 uM final) to determine if there is a hit. […] Each condition was tested in duplicates. […] For some samples, a smaller range of concentrations was tested depending on the % Inhibition results at 10 uM and 100 uM. Results were summarized in Tables 2, 3, and 4 herein after. Table 2 represents the IC50 values (uM) of the test compounds as inhibitors of the activity of the various caspases.
# (§3) (*) RFU (no inhibitor control)—RFU (compound at a specific concentration)
# (§4) RFU (no inhibitor control)
# Caspase-10 = molecular target: T2, Caspase-10 (Homo sapiens, UniProt Q92851); experiment: Caspase-10 inhibitor screening assay (BioVision kit, AEVD-AFC); settings: read-out: IC50 Casp10
# T2 construct: mixing the compounds with the respective active caspases; purchased BioVision K160-100
# T2 sequence (Q92851 220-415 limits assumed): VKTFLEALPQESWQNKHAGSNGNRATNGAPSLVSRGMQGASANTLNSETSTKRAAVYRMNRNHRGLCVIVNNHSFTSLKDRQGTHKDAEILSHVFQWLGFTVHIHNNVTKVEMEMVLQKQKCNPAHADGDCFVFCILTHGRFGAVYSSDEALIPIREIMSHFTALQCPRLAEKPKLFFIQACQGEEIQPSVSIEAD
# T2 sequence (Q92851 416-521 limits assumed): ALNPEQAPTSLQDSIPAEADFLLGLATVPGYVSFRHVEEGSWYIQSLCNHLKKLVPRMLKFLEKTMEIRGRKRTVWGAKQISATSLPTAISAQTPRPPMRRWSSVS
# Description: as §1, §2, §3, §4
# Caspase-1 = molecular target: T3, Caspase-1 (Homo sapiens, UniProt P29466); experiment: Caspase-1 inhibitor screening assay (BioVision kit, YVAD-AFC); settings: read-out: IC50 Casp1
# T3 construct: mixing the compounds with the respective active caspases; purchased BioVision K151-100
# T3 sequence (P29466 120-297 limits assumed): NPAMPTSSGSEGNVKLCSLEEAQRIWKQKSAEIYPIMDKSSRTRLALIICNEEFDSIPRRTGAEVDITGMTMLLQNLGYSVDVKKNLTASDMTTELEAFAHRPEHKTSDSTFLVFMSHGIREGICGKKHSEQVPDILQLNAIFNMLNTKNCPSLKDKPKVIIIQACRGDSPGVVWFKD
# T3 sequence (P29466 317-404 limits assumed): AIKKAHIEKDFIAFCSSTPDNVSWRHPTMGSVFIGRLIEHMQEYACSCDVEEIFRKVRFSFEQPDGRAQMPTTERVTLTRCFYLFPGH
# Description: as §1, §2, §3, §4
# Caspase-3 = molecular target: T4, Caspase-3 (Homo sapiens, UniProt P42574); experiment: Caspase-3 inhibitor screening assay (BioVision kit, DEVD-AFC); settings: read-out: IC50 Casp3
# T4 construct: mixing the compounds with the respective active caspases; purchased BioVision K153-100
# T4 sequence (P42574 29-175 limits assumed): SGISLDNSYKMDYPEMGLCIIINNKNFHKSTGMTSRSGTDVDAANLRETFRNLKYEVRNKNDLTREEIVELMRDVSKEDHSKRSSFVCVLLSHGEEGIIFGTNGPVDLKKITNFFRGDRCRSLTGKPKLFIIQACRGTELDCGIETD
# T4 sequence (P42574 176-277 limits assumed): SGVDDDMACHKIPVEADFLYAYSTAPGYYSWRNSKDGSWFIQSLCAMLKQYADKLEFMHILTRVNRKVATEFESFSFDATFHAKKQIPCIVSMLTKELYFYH
# Description: as §1, §2, §3, §4
# Caspase-7 = molecular target: T5, Caspase-7 (Homo sapiens, UniProt P55210); experiment: Caspase-7 inhibitor screening assay (BioVision kit, DEVD-AFC); settings: read-out: IC50 Casp7
# T5 construct: mixing the compounds with the respective active caspases; purchased BioVision K157-100
# T5 sequence (P55210 24-198 limits assumed): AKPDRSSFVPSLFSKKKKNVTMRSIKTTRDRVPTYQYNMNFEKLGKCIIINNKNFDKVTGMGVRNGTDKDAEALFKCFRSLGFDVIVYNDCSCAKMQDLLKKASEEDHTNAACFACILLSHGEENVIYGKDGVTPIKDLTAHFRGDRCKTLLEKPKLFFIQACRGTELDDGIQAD
# T5 sequence (P55210 207-303 limits assumed): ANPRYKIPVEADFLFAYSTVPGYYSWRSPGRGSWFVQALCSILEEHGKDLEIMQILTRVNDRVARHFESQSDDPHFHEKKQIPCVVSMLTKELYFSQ
# Description: as §1, §2, §3, §4
# Caspase-6 = molecular target: T6, Caspase-6 (Homo sapiens, UniProt P55212); experiment: Caspase-6 inhibitor screening assay (BioVision kit, VEID-AFC)
# T6 construct: mixing the compounds with the respective active caspases; purchased BioVision K156-100
# T6 sequence (P55212 24-179 limits assumed): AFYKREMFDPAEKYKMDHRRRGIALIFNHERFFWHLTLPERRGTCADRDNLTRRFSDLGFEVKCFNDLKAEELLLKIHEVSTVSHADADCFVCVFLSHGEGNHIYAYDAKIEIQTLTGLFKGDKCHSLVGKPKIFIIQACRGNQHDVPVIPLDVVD
# T6 sequence (P55212 194-293 limits assumed): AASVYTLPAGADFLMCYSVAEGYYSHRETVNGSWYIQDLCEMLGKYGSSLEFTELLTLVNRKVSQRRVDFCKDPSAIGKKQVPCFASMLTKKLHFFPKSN
# Description: as §1, §2, §3, §4
# Caspase-4 = molecular target: T7, Caspase-4 (Homo sapiens, UniProt P49662); experiment: Caspase-4 inhibitor screening assay (BioVision kit, LEVD-AFC); settings: read-out: IC50 Casp4
# T7 construct: mixing the compounds with the respective active caspases; purchased BioVision K154-100
# T7 sequence (P49662 81-270 limits assumed): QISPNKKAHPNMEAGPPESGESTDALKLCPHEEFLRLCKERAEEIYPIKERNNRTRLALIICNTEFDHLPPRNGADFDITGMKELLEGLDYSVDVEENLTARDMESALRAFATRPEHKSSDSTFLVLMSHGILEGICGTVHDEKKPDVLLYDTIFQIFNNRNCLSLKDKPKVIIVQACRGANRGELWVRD
# T7 sequence (P49662 290-377 limits assumed): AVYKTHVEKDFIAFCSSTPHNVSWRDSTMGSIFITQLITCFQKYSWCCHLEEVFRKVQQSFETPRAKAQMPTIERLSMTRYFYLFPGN
# Description: as §1, §2, §3, §4
# Caspase-8 = molecular target: T8, Caspase-8 (Homo sapiens, UniProt Q14790); experiment: Caspase-8 inhibitor screening assay (BioVision kit, IETD-AFC); settings: read-out: IC50 Casp8
# T8 construct: mixing the compounds with the respective active caspases; purchased BioVision K158-100
# T8 sequence (Q14790 217-374 limits assumed): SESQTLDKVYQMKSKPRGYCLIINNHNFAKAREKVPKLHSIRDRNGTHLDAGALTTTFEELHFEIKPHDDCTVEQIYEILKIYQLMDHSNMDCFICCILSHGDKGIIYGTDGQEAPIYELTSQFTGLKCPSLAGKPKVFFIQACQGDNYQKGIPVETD
# T8 sequence (Q14790 385-479 limits assumed): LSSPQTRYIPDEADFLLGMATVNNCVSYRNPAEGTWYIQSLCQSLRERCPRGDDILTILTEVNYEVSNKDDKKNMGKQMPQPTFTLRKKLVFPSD
# Description: as §1, §2, §3, §4
# Caspase-9 = molecular target: T9, Caspase-9 (Homo sapiens, UniProt P55211); experiment: Caspase-9 inhibitor screening assay (BioVision kit, LEHD-AFC); settings: read-out: IC50 Casp9
# T9 construct: purchased BioVision K159-100
# T9 sequence (P55211 1-315 limits assumed): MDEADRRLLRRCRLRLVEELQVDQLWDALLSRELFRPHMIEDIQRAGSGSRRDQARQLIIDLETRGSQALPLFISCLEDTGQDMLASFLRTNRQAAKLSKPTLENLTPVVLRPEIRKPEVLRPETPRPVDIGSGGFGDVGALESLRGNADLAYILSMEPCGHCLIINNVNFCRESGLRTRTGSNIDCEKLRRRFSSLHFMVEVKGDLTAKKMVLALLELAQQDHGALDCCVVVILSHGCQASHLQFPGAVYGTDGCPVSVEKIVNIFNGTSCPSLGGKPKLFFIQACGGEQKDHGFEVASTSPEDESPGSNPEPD
# T9 sequence (P55211 331-416 limits assumed): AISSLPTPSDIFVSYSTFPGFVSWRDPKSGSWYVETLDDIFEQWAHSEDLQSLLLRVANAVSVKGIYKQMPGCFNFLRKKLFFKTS
# Description: as §1, §2, §3, §4
IC50 (Caspase-5) [nM],IC50 (Caspase-10) [nM],IC50 (Caspase-1) [nM],IC50 (Caspase-3) [nM],IC50 (Caspase-7) [nM],IC50 (Caspase-6; read-out: IC50 Casp6) [nM],IC50 (Caspase-4) [nM],IC50 (Caspase-8) [nM],IC50 (Caspase-9) [nM],IC50 (Caspase-6; read-out: inhibition (IC50) against Caspase-6) [nM],SMILES
16000,50,7900,1270,150,> 100000,> 100000,–,–,–,"CCOC(=O)/C(Cl)=C/[C@H](CC(=O)O)NC(=O)[C@H]1CCCN1C(=O)[C@H](NC(=O)[C@H](CC(=O)O)NC(=O)OCc1ccccc1)C(C)(C)C [Compound 57, Z-Asp-t-Leu-Pro-Asp αchlorovinyl Ethyl Vinyl Ester]"
900,–,110,> 100000,> 100000,> 100000,70,1400,–,–,"CCOC(=O)/C(Cl)=C/[C@H](CC(=O)O)NC(=O)[C@H]1CCCN1C(=O)[C@@H](NC(=O)c1ccc(N)c(Cl)c1)C(C)(C)C [Compound 117, 4-amino-3-chlorobenzene carbonyl-t-Leu-Pro-Asp αchlorovinyl Ethyl Vinyl Ester]"
4200,190,3880,1340,–,–,1800,530,6400,229,"CCC(C)[C@H](NC(=O)[C@H](CCC(=O)O)NC(=O)[C@@H](NC(=O)OCc1ccccc1)C(C)C)C(=O)N[C@H](/C=C(\Cl)S(C)(=O)=O)CC(=O)O (stereo partly drawn) [Compound 123, Z-Val-Glu-Ile-Asp-achlorovinyl methyl vinyl sulfone]"
